For 27 compounds, IC50 results are on record in US11891365B2, “3-alkyl-4-amido-bicyclic [4,5,0] hydroxamic acids as HDAC inhibitors” (Valo Health, Inc., priority 2015, dated 2024).

The target of this assay is T1, Full length human recombinant HDAC6 protein (Homo sapiens, UniProt Q9UBN7).
T1 sequence (Q9UBN7 1-1215): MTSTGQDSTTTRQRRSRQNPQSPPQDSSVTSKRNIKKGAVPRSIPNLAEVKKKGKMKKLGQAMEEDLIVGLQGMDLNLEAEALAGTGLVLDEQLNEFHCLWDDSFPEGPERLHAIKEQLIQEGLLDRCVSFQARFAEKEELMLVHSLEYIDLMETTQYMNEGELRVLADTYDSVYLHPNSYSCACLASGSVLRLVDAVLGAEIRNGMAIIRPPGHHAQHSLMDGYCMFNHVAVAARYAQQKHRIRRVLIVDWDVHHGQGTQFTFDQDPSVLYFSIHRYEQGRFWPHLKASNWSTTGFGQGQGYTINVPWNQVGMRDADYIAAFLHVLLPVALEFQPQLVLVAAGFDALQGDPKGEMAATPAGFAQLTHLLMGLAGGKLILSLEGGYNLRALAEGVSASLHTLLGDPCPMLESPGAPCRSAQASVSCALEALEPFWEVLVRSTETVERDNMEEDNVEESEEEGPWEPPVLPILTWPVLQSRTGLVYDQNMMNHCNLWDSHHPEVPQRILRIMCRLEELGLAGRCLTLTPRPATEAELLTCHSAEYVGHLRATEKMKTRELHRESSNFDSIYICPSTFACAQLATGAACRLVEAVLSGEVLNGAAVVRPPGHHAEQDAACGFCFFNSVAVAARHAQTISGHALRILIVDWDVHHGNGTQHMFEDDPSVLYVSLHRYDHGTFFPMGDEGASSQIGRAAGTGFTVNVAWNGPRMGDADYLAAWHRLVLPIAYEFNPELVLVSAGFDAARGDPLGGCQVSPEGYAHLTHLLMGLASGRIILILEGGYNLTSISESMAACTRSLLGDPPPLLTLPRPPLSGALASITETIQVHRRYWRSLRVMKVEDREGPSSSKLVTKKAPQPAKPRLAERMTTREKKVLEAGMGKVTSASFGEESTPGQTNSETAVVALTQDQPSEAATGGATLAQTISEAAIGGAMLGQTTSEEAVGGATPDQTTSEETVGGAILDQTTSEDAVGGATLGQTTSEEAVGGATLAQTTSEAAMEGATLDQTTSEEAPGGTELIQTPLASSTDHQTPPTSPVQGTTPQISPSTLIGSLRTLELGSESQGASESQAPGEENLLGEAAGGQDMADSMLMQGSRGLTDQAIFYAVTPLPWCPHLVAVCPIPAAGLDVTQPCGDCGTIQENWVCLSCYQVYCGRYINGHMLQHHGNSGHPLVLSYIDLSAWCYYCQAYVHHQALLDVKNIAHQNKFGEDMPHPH
As to the kind of experiment: In vitro histone deacetylase assay: enzymatic HDAC6 electrophoretic mobility shift assay. To be noted: 1 nM enzyme, 2 μM peptide substrate RHKK(Ac)-NH2, 25° C., 12 concentrations; read-out: Inhibitory Concentration (IC50) Values against HDAC6, Activity Range. It is filed as biochemical. The procedure:
The enzymatic HDAC6 assay was performed using electrophoretic mobility shift assay. […] The enzymatic reactions were assembled in 384 well plates in a total volume of 25 μL in a reaction buffer composing: 100 mM HEPES, pH7.5, 25 mM KCl, 0.1% bovine serum albumin, 0.01% Triton X-100, 1% DMSO (from compounds) 2 μM of the fluorescently labeled peptide substrate and enzyme. The enzyme was added at a final concentration of 1 nM. The peptide substrate RHKK(Ac)—NH2 was used. The compounds were tested at 12 concentrations spaced by 3× dilution intervals. Negative control samples ([…] in the absence of inhibitor) and positive control samples (100%-inhibition) were assembled in replicates of four in each assay plate. The reactions were incubated at 25° C. and quenched by the addition of 45 μL of termination buffer (100 mM HEPES, pH 7.5, 0.01% Triton X-100, 0.05% SDS).
The terminated assay plates were analyzed on LabChip® 3000 microfluidic electrophoresis instrument (Perkin Elmer/Caliper Life Sciences). The fluorescence intensity of the electrophoretically separated de-acetylated product and substrate peptide was measured. Activity in each sample was determined as the product to sum ratio (PSR): P/(S+P), where P is the peak height of the product peptide and S is the peak height of the substrate peptide. Percent inhibition (Pinh) is determined using the following equation:
Pinh=(PSR0%−PSRinh)/(PSR0%−PSR100%)*100, where PSRinh is the product sum ratio in the presence of inhibitor, PSR0% is the average product sum ration in the absence of inhibitor and PSR100% is the average product sum ratio in 100%-inhibition control samples. The IC50 values of inhibitors were determined by fitting the %-inhibition curves with 4 parameter dose-response model using XLfit 4 software.

pIC50: −log10 of the molar value.

In the case of `O=C(NO)c1ccc2c(c1)OCCN(C(=O)[C@@H]1CCCOC1)C2` [(R)-N-hydroxy-4-(tetrahydro-2H-pyran-3-carbonyl)-2,3,4,5-tetrahydrobenzo[f][1,4]oxazepine-8-carboxamide], the pIC50 is at least 7.00.

Turning to `CC1(C(=O)N2CCOc3cc(C(=O)NO)ccc3C2)CCCC1` [N-hydroxy-4-(1-methylcyclopentane-1-carbonyl)-2,3,4,5-tetrahydrobenzo[f][1,4]oxazepine-8-carboxamide], the pIC50 was at least 7.00.

As for `C[C@H]1COc2cc(C(=O)NO)ccc2CN1C(=O)[C@@H]1CCCOC1` [(S)-N-hydroxy-3-methyl-4-((R)-tetrahydro-2H-pyran-3-carbonyl)-2,3,4,5-tetrahydrobenzo[f][1,4]oxazepine-8-carboxamide], the pIC50 was at least 7.00.

As to `C[C@H]1COc2cc(C(=O)NO)ccc2CN1C(=O)C1CCN(C=O)CC1` [(S)-4-(1-formylpiperidine-4-carbonyl)-N-hydroxy-3-methyl-2,3,4,5-tetrahydrobenzo[f][1,4]oxazepine-8-carboxamide], the pIC50 was at least 7.00.

In the case of `CC(C)[C@H]1c2ccc(C(=O)NO)cc2OCCN1C(=O)C1COC1` [(S)-N-hydroxy-5-isopropyl-4-(oxetane-3-carbonyl)-2,3,4,5-tetrahydrobenzo[f][1,4]oxazepine-8-carboxamide], the pIC50 was under 6.30.

As to `O=C(NO)c1ccc2c(c1)OCCN(C(=O)C1COC1)C2` [N-hydroxy-4-(oxetane-3-carbonyl)-2,3,4,5-tetrahydrobenzo[f][1,4]oxazepine-8-carboxamide], the pIC50 is at least 7.00.

Consider `C[C@H]1COc2cc(C(=O)NO)ccc2CN1C(=O)[C@H]1CC2CCC1O2` (stereo partly drawn) [(3S)-4-((2S)-7-oxabicyclo[2.2.1]heptane-2-carbonyl)-N-hydroxy-3-methyl-2,3,4,5-tetrahydrobenzo[f][1,4]oxazepine-8-carboxamide], for which the pIC50 is at least 7.00.

With `C[C@H]1COc2cc(C(=O)NO)ccc2CN1C(=O)CCOC1CCOCC1` [(S)-N-hydroxy-3-methyl-4-(3-((tetrahydro-2H-pyran-4-yl)oxy)propanoyl)-2,3,4,5-tetrahydrobenzo[f][1,4]oxazepine-8-carboxamide], the pIC50 is 6.30 to 7.00.

For the compound `CO[C@H]1CC[C@H](C(=O)N2CCOc3cc(C(=O)NO)ccc3[C@@H]2C)CC1` (single isomer, unassigned), the pIC50 was at least 7.00.

Turning to `C[C@@H]1c2ccc(C(=O)NO)cc2OCCN1C(=O)C1CCOCC1` [(R)-N-hydroxy-5-methyl-4-(tetrahydro-2H-pyran-4-carbonyl)-2,3,4,5-tetrahydrobenzo[f][1,4]oxazepine-8-carboxamide], the pIC50 is under 6.30.

Consider `CCC1(C(=O)N2CCOc3cc(C(=O)NO)ccc3C2)COC1` [4-(3-ethyloxetane-3-carbonyl)-N-hydroxy-2,3,4,5-tetrahydrobenzo[f][1,4]oxazepine-8-carboxamide], for which the pIC50 is at least 7.00.

For the compound `CC(C)C(=O)N1CCOc2cc(C(=O)NO)ccc2C1` [N-hydroxy-4-isobutyryl-2,3,4,5-tetrahydrobenzo[f][1,4]oxazepine-8-carboxamide], the pIC50 is at least 7.00.

For `CC(=O)N1Cc2ccc(C(=O)NO)cc2OC[C@@H]1C` [(S)-4-acetyl-N-hydroxy-3-methyl-2,3,4,5-tetrahydrobenzo[f][1,4]oxazepine-8-carboxamide], the pIC50 was 6.30 to 7.00.

For `O=C(NO)c1ccc2c(c1)OCCN(C(=O)C1(c3cccs3)CC1)C2` [N-hydroxy-4-(1-(thiophen-2-yl)cyclopropane-1-carbonyl)-2,3,4,5-tetrahydrobenzo[f][1,4]oxazepine-8-carboxamide], the pIC50 is at least 7.00.

Turning to `CC(C)[C@@H]1CN(C=O)Cc2ccc(C(=O)NO)cc2O1` [(R)-4-formyl-N-hydroxy-2-isopropyl-2,3,4,5-tetrahydrobenzo[f][1,4]oxazepine-8-carboxamide], the pIC50 was 6.30 to 7.00.

On to `COC(C)(C)CC(=O)N1Cc2ccc(C(=O)NO)cc2OC[C@@H]1C` [(S)-N-hydroxy-4-(3-methoxy-3-methylbutanoyl)-3-methyl-2,3,4,5-tetrahydrobenzo[f][1,4]oxazepine-8-carboxamide], for which the pIC50 was at least 7.00.

Turning to `O=C(NO)c1ccc2c(c1)OCCN(C(=O)C1CCOC1)C2` (stereo not drawn) [N-hydroxy-4-(tetrahydrofuran-3-carbonyl)-2,3,4,5-tetrahydrobenzo[f][1,4]oxazepine-8-carboxamide], the pIC50 is at least 7.00.

For the compound `C[C@@H]1c2cc(C(=O)NO)ccc2OCCN1C(=O)C1CCOCC1` [(R)-N-hydroxy-5-methyl-4-(tetrahydro-2H-pyran-4-carbonyl)-2,3,4,5-tetrahydrobenzo[f][1,4]oxazepine-7-carboxamide], the pIC50 was at least 7.00.

In the case of `C[C@H]1COc2cc(C(=O)NO)ccc2CN1C(=O)[C@@]1(C)CCCCO1` [(S)-N-hydroxy-3-methyl-4-((R)-2-methyltetrahydro-2H-pyran-2-carbonyl)-2,3,4,5-tetrahydrobenzo[f][1,4]oxazepine-8-carboxamide], the pIC50 is 6.30 to 7.00.

`COCC1(C(=O)N2CCOc3cc(C(=O)NO)ccc3C2)CCC1` [N-hydroxy-4-(1-(methoxymethyl)cyclobutane-1-carbonyl)-2,3,4,5-tetrahydrobenzo[f][1,4]oxazepine-8-carboxamide]: the pIC50 is at least 7.00.

Take `CN(CC(=O)N1CCOc2cc(C(=O)NO)ccc2C1)S(C)(=O)=O` [N-hydroxy-4-(N-methyl-N-(methylsulfonyl)glycyl)-2,3,4,5-tetrahydrobenzo[f][1,4]oxazepine-8-carboxamide]: the pIC50 is 6.30 to 7.00.

`CC(C)[C@H]1COc2cc(C(=O)NO)ccc2CN1C(=O)CC1CCOCC1` [(S)-N-hydroxy-3-isopropyl-4-(2-(tetrahydro-2H-pyran-4-yl)acetyl)-2,3,4,5-tetrahydrobenzo[f][1,4]oxazepine-8-carboxamide]: the pIC50 was 6.30 to 7.00.

Regarding `CO[C@H]1C[C@@H](C(=O)N2Cc3ccc(C(=O)NO)cc3OC[C@@H]2C)C1`, the pIC50 was at least 7.00.

Consider `O=C(NO)c1ccc2c(c1)OCCN(C(=O)c1cc(C(F)(F)F)cc(C(F)(F)F)c1)C2` [4-(3,5-bis(trifluoromethyl)benzoyl)-N-hydroxy-2,3,4,5-tetrahydrobenzo[f][1,4]oxazepine-8-carboxamide], for which the pIC50 is 6.30 to 7.00.

For `C[C@H]1COc2cc(C(=O)NO)ccc2CN1C(=O)CCOc1ccc(F)cc1` [(S)-4-(3-(4-fluorophenoxy)propanoyl)-N-hydroxy-3-methyl-2,3,4,5-tetrahydrobenzo[f][1,4]oxazepine-8-carboxamide], the pIC50 was at least 7.00.

`C[C@H]1COc2cc(C(=O)NO)ccc2CN1C(=O)C(C)(C)c1ccc(F)cc1` [(S)-4-(2-(4-fluorophenyl)-2-methylpropanoyl)-N-hydroxy-3-methyl-2,3,4,5-tetrahydrobenzo[f][1,4]oxazepine-8-carboxamide]: the pIC50 was at least 7.00.

For the compound `CCC(Oc1ccccc1)C(=O)N1CCOc2cc(C(=O)NO)ccc2C1` (stereo not drawn) [N-hydroxy-4-(2-phenoxybutanoyl)-2,3,4,5-tetrahydrobenzo[f][1,4]oxazepine-8-carboxamide], the pIC50 was 6.30 to 7.00.
